Key:
[1] = tested on: hPSC-derived endothelial progenitors (Passage 1 ECs); assay: Immunocytochemistry of Passage 1 ECs treated with Wnt ligands, CHIR or conditioned media; type: cell-based, human
Description: Collagen IV (Sigma-Aldrich) was dissolved in 0.5 mg/mL acetic acid to a final concentration of 1 mg/mL. Collagen IV-coated plates were prepared by diluting a volume of this stock solution 1:100 in water, adding the resulting solution to tissue culture plates, or #1.5 glass bottom plates (Cellvis, Sunnyvale, CA) for cells intended for confocal imaging (1 mL per well for 6-well plates, 0.5 mL per well for 12-well plates, 0.25 mL per well for 24-well plates), and incubating the plates for 1 h at RT. Collagen IV coating solution was removed and EPCs obtained as described above were suspended in hECSR medium and plated at approximately 3×10^4 cells/cm^2. In some experiments, cells were suspended in NR-CM or Astro-CM. In some experiments, ligands and small molecules were added to hECSR medium: CHIR 99021 (Tocris) was used at 4 μM except where indicated; DMSO (Sigma-Aldrich) was used as a vehicle control for CHIR; Wnt3a (R&D Systems) was used at 20 ng/mL; Wnt7a (Peprotech, Rocky Hill, NJ) was used at 50 ng/mL; Wnt7b (Abnova, Tapei, Taiwan) was used at 50 ng/mL; R-spondin 1 (Rspo1; Peprotech) was used at 50 ng/mL; doxycycline was used at 1, 2, or 4 μg/mL. The hECSR medium or CM, including any ligands or small molecules, was replaced every other day until confluent (typically 6 days). We denote this time point “Passage 1.”
Immunocytochemistry was performed in 24-well plates. Cells were washed once with 500 μL DPBS and fixed with 500 μL cold (−20° C.) methanol for 5 min, except cells intended for calponin/SM22a and CD31/Ki67 detection, which were fixed with 500 μL of 4% paraformaldehyde for 15 min. Cells were washed three times with 500 μL DPBS and blocked in 150 μL DPBS supplemented with 10% goat serum (Life Technologies) for 1 h at room temperature, except cells intended for calponin/SM22α detection, which were blocked and permeabilized in DPBS supplemented with 3% BSA and 0.1% Triton X-100, or cells intended for CD31/Ki67 detection, which were blocked and permeabilized in DPBS supplemented with 5% non-fat dry milk and 0.4% Triton X-100. Primary antibodies diluted in 150 μL of the above blocking solutions (see Table 6 for antibody information) were added to cells and incubated overnight at 4° C. on a rocking platform. Cells were washed three times with 500 μL DPBS. Secondary antibodies diluted in 150 μL of the above blocking solutions (see Table 6 for antibody information) were added to cells and incubated for 1 h at room temperature on a rocking platform, protected from light. Cells were washed three times with 500 μL DPBS, followed by 5 min incubation with 500 μL DPBS plus 4 μM Hoechst 33342 (Life Technologies). Images were acquired using an Eclipse Ti2-E epifluorescence microscope (Nikon, Tokyo, Japan) with a 20× objective or an A1R-Si+ confocal microscope (Nikon) with a 100× oil objective. Confocal images were acquired with 1 μm slice spacing.
(§1) Images were analyzed using FIJI (ImageJ) software. For epifluorescence images, 5 fields (20×) were analyzed per well, with 3-4 wells per treatment condition. For quantification of cell number, EC colonies were manually outlined, and the Analyze Particles function was used to estimate the number of nuclei within the EC colonies. Nuclei outside the EC colonies were manually counted. EC purity (% EC) was calculated as the number of nuclei within EC colonies relative to total nuclei. To estimate % GLUT-1^+ ECs, cells within the EC colonies with membrane-localized GLUT-1 immunoreactivity (e.g., arrowheads in FIG. 24B) were manually counted. To estimate % Ki67^+ ECs, cells within the EC colonies with at least one nuclear-localized Ki67 punctum were manually counted. For quantification of fluorescence intensity in epifluorescence images, EC colonies were manually outlined, and the Measure function was used to obtain the mean fluorescence intensity for each image channel (fluorophore). A cell-free area of the plate was similarly quantified for background subtraction. […]

Passage 1 ECs (WTC11) = assay: EC proliferation (Ki67 immunocytochemistry, cell cycle analysis); type: cell-based, human; conditions: CHIR vs DMSO
Description: as §1, with “subtraction. Following background subtraction, the mean fluorescence intensity of each protein of interest was normalized to the mean fluorescence intensity of Hoechst to correct for effects of cell density. For confocal images, 3-4 fields (100×) containing only VE-cadherin^+ ECs were analyzed per well, with 4 wells per treatment condition.” for “subtraction.”

[2] = 4 μM CHIR vs control, Passage 1 ECs

Structure (SMILES): Cc1c[nH]c(-c2cnc(NCCNc3ccc(C#N)cn3)nc2-c2ccc(Cl)cc2Cl)n1 [CHIR, CHIR 99021]
- caveolin-1 expression vs DMSO ([1]; 2 μM CHIR): did not lead to increased caveolin-1 expression
- claudin-5 or GLUT-1 expression vs control ([1]; 2 μM CHIR): did not elevate claudin-5 or GLUT-1 expression
- EC number and EC purity ([1]; 2 μM CHIR vs 4 μM CHIR): less effective in increasing EC number and EC purity than 4 μM CHIR
- increase in GLUT-1 abundance [1, 2]: ~30 fold
- increase in average claudin-5 abundance [1, 2]: approximately 1.5 fold
- increase in caveolin-1 [1, 2]: 4 fold
- ECs with induced GLUT-1 expression ([1]; 4 μM CHIR, Passage 1 ECs, IMR90-4): approximately 90%
- EC number, EC purity, claudin-5 expression ([1]; 6 μM CHIR vs 4 μM): did not improve EC number, EC purity, or claudin-5 expression
- GLUT-1 abundance ([1]; 6 μM CHIR vs 4 μM): further increased GLUT-1 abundance
- caveolin-1 abundance ([1]; 6 μM CHIR vs 4 μM): further increased caveolin-1 abundance
- increases in GLUT-1 abundance ([1]; CHIR treatment initiated immediately after MACS): 10- to 40 fold
- EC purity (proportion of ECs compared to SMLCs) ([1]; Passage 1 cultures, 6 days treatment): increasing EC purity to a level similar to that achieved with Wnt7a
- EC purity, EC number, caveolin-1 and GLUT-1 expression ([1]; additional hPSC line (WTC11)): conserved
- claudin-5 upregulation ([1]; additional hPSC line (WTC11)): not apparent
- reduction of PLVAP abundance ([1]; confocal microscopy, Passage 1 ECs, CHIR vs DMSO): approximately 20%
- EC proliferation (Passage 1 ECs (WTC11)): increased EC proliferation
